In patent US8007836B2, “Cleome spinosa extract used in pharmaceutical preparations and cosmetic compositions” (Pierre Fabre Dermo-Cosmetique, priority 2007, dated 2011):

System: human hair follicles
Assay: Growth of cultivated entire human hair follicles from scalp ex vivo, 14 days of culture
Assay type: cell-based
Conditions: vs control non-treated follicles, minoxidil concentration not given
Protocol: Study of the effect of a Cleome spinosa extract on the growth of cultivated human hair follicles.
Evaluation of minoxidil, a reference molecule, was conducted in parallel.
Hair follicles originate from the human scalp from plastic surgery departments of hospitals or clinics (two donors).
The skin is shaved and washed in 6 baths of antibiotics. The follicles in the anagen phase are recognizable because they are very vascularized, and then isolated from the skin under a binocular magnifier and cleared of fat.
They are then incubated at 37° C. in 24-well culture dishes in an adequate culture medium containing the products to be tested.
The growth of the stem of the hair follicle is measured with plotting paper under a binocular magnifier on days 0, 4, 5, 7, 9, 12 or 14.
The determination of the growth and activity percentages of the hydroalcoholic extract of Cleome spinosa was carried out after 4 or 5, 7 or 8, 12 and 14 days of treatment of the hair follicles as compared with control non-treated follicles.
Notation: Tx is the time x after treatment • T0 is time 0 of the beginning of the treatment
The growth percentage is equal to (Tx measurement−T0 measurement)/T0 measurement×100
The activity of the treatment is calculated in the following way: [(Tx treated measurement−T0 treated measurement)−(Tx control measurement−T0 control measurement)]/(Tx control measurement−T0 control measurement)×100

Nc1cc(N2CCCCC2)nc(N)[n+]1[O-] [Minoxidil, 2,4-diamino-6-piperidinopyrimidine-3-oxide]
% of activity (D4/D5 of treatment): 55%
% of activity (D8/D7 of treatment): 41%
% of activity (D12 of treatment): 21%
% of activity (D14 of treatment): 17%
